In US4606911A, “Pharmaceutical composition for the prevention of dental caries” (Rohto Pharmaceutical Co. Ltd., priority 1984, dated 1986):
Values after ≈ are worked out from the molar mass of the structure shown. “Also recorded” adds a separate entry of the source. Where two headings read alike, the source gives them in different places.

Experiments:
Type in all cases: cell-based
[1] = test system: Staphylococcus aureus 209P; test: Antibacterial activity (MIC, growth in BHI medium); design: key to Antibacterial activity (growth): -: grow; ±: slightly grow; +: not grow
Procedure: To a test tube was charged 3.8 ml of Brain Heart Infusion (BHI) medium, and 100 μl of a sample solution containing oleanolic, ursolic or glycyrrhetic acid and 100 μl of pre-incubated culture of bacterium selected from those listed below were added thereto. The mixture was incubated at 37° C. and then allowed to stand over night. The extent of the growth of bacterium was observed after two or five days. The MIC value was determined for each sample and summarized in Table 2. |Staphylococcus aureus […]

[2] = test system: Streptococcus salivarius ATCC 9222; test: Antibacterial activity (MIC, growth in BHI medium); design: key to Antibacterial activity (growth): -: grow; ±: slightly grow; +: not grow
Procedure: To a test tube was charged 3.8 ml of Brain Heart Infusion (BHI) medium, and 100 μl of a sample solution containing oleanolic, ursolic or glycyrrhetic acid and 100 μl of pre-incubated culture of bacterium selected from those listed below were added thereto. The mixture was incubated at 37° C. and then allowed to stand over night. The extent of the growth of bacterium was observed after two or five days. The MIC value was determined for each sample and summarized in Table 2. |Streptococcus salivarius ATCC 9222

[3] = test system: Pseudomonas aeruginosa KM338; test: Antibacterial activity (MIC, growth in BHI medium); design: key to Antibacterial activity (growth): -: grow; ±: slightly grow; +: not grow
Procedure: To a test tube was charged 3.8 ml of Brain Heart Infusion (BHI) medium, and 100 μl of a sample solution containing oleanolic, ursolic or glycyrrhetic acid and 100 μl of pre-incubated culture of bacterium selected from those listed below were added thereto. The mixture was incubated at 37° C. and then allowed to stand over night. The extent of the growth of bacterium was observed after two or five days. The MIC value was determined for each sample and summarized in Table 2. |Pseudomonas aeruginosa KM338

[4] = test system: Bacillus megaterium QM B1551; test: Antibacterial activity (MIC, growth in BHI medium); design: key to Antibacterial activity (growth): -: grow; ±: slightly grow; +: not grow
Procedure: To a test tube was charged 3.8 ml of Brain Heart Infusion (BHI) medium, and 100 μl of a sample solution containing oleanolic, ursolic or glycyrrhetic acid and 100 μl of pre-incubated culture of bacterium selected from those listed below were added thereto. The mixture was incubated at 37° C. and then allowed to stand over night. The extent of the growth of bacterium was observed after two or five days. The MIC value was determined for each sample and summarized in Table 2. |Bacillus megaterium QM B1551

Esherichia coli K12 = test: Antibacterial activity (MIC, growth in BHI medium); design: key to Antibacterial activity (growth): -: grow; ±: slightly grow; +: not grow
Procedure: (§1) To a test tube was charged 3.8 ml of Brain Heart Infusion (BHI) medium, and 100 μl of a sample solution containing oleanolic, ursolic or glycyrrhetic acid and 100 μl of pre-incubated culture of bacterium selected from those listed below were added thereto. The mixture was incubated at 37° C. and then allowed to stand over night. The extent of the growth of bacterium was observed after two or five days.
Esherichia coli K12 (Gram negative)

[5] = test system: Serratia marcescens IFO 12648; test: Antibacterial activity (MIC, growth in BHI medium); design: key to Antibacterial activity (growth): -: grow; ±: slightly grow; +: not grow
Procedure: To a test tube was charged 3.8 ml of Brain Heart Infusion (BHI) medium, and 100 μl of a sample solution containing oleanolic, ursolic or glycyrrhetic acid and 100 μl of pre-incubated culture of bacterium selected from those listed below were added thereto. The mixture was incubated at 37° C. and then allowed to stand over night. The extent of the growth of bacterium was observed after two or five days. The MIC value was determined for each sample and summarized in Table 2. |Serratia marcescens IFO 12648

[6] = test system: Streptococcus mutans OMZ 176; test: Antibacterial activity (MIC, growth in BHI medium); design: key to Antibacterial activity (growth): -: grow; ±: slightly grow; +: not grow
Procedure: as §1
Streptococcus mutans OMZ 176

bacterial cells = test: Adherence of bacterial cells to the surface of an extracted tooth; details: extracted tooth suspended in a culture medium containing sucrose
[7] = test system: S. mutans OMZ 176 (serotype d); test: microbe, parasite or virus in culture; details: for minimal effective concentration / inhibition at 10 µg/mL / inhibition at 20 µg/mL / inhibition at 30 µg/mL / inhibition at 50 µg/mL / inhibition at 100 µg/mL: Streptococcus mutans; for minimal effective concentration: 20 h, read-out: concentration at which adherence of the bacterial cells is inhibited; for inhibition at 10 µg/mL / inhibition at 20 µg/mL / inhibition at 30 µg/mL / inhibition at 50 µg/mL / inhibition at 100 µg/mL: read-out: Adherence-inhibiting activity (AIP)
Procedure: The adherence-inhibiting activity of the triterpenes of the formula (I) was measured using an inner wall of a test tube in place of the surface of a tooth.
To 2.9 ml of BHI medium containing 5% sucrose in a test tube (i) are added 30 μl of a sample solution prepared by dissolving a compound of: the formula (I) in H2 O or dimethylsulfoxide (DMSO) and 100 μl of culture medium containing S. mutans OMZ 176 (serotype d) which was preincuvated at 37° C. for 24 hours in BHI medium, and the mixture is incubated at 37° C. for 20 hours, with the test tube being maintained at a slant of 30°. The test tube is revolved gently two or three times and the supernatant is transferred to another test tube (ii). To the first test tube (i) is added 3 ml of 50 mM phosphate buffer (pH 7.5), and the test tube is gently revolved two or three times. The resultant supernatant is transferred to the third test tube (iii). The test tubes (ii) and (iii) are each centrifuged and respective supernatants are discarded. To each of the test tubes (i), (ii) and (iii) is added 3 ml of 0.5M NaOH, and the test tubes are shaken to suspend bacterial cells. Absorbance of the resulting suspension is measured at 660 nm. The absorbances obtained with respect to the test tube (i), (ii) and (iii) are represented by Ab(i), Ab(ii) and Ab(iii), respectively. Ab(i) reflects the amount of the bacterial cells adhered to the wall of the test tube and Ab(ii) and Ab(iii) correspond to the amount of the bacterial cells not adhered to the wall.
The same procedure is repeated using 30 μl of distilled water or DMSO in place of the sample solution to obtain a control. The absorbance of the control is represented by Ab(Cont.).
Adherence percentage of bacteria is calculated from the following equation. [formula]
Adherence inhibitory percentage (AIP) is calculated using the adherence percentage according to the following equation. [formula]
The magnitude of adherence-inhibiting activity of each of the samples is shown, in Table 3, by the use of the following symbols: […]

[8] = text statement, listed as pomolic acid

SMILES: CC1(C)[C@@H](O)CC[C@]2(C)[C@H]3C(=O)C=C4[C@@H]5C[C@@](C)(C(=O)O)CC[C@]5(C)CC[C@@]4(C)[C@]3(C)CC[C@@H]12 [Glycyrrhetic acid]
- Antibacterial activity (growth) ([1]; 10 μg/ml): -
- Antibacterial activity (growth) ([1]; 25 μg/ml): -
- Antibacterial activity (growth) ([1]; 50 μg/ml): -
- Antibacterial activity (growth) ([1]; 100 μg/ml): -
- Antibacterial activity (growth) ([1]; 200 μg/ml): -
- Antibacterial activity (growth) ([1]; 400 μg/ml): -
- MIC ([1]; 209P, Staphylococcus aureus, BHI, 37° C., read-out: MIC (minimum inhibitory concentration)): 400 µg/mL (≈ 850 µM)
- antibacterial action on Staphylococcus aureus (in words) ([1]; text statement): remain unaffected
- Antibacterial activity (growth) ([2]; 10 μg/ml): -
- Antibacterial activity (growth) ([2]; 25 μg/ml): -
- Antibacterial activity (growth) ([2]; 50 μg/ml): -
- Antibacterial activity (growth) ([2]; 100 μg/ml): -
- Antibacterial activity (growth) ([2]; 200 μg/ml): -
- Antibacterial activity (growth) ([2]; 400 μg/ml): ±
- MIC ([2]; ATCC9222, Streptococcus salivarius, BHI, 37° C., read-out: MIC (minimum inhibitory concentration)): > 400 µg/mL
- antibacterial action on Streptococcus salivarius (in words) ([2]; text statement): remain unaffected
- Antibacterial activity (growth) ([3]; 10 μg/ml): -
- Antibacterial activity (growth) ([3]; 25 μg/ml): -
- Antibacterial activity (growth) ([3]; 50 μg/ml): -
- Antibacterial activity (growth) ([3]; 100 μg/ml): -
- Antibacterial activity (growth) ([3]; 200 μg/ml): -
- Antibacterial activity (growth) ([3]; 400 μg/ml): -
- MIC ([3]; KM338, Pseudomonas aeruginosa, BHI, 37° C., read-out: MIC (minimum inhibitory concentration)): > 400 µg/mL
- antibacterial action on Pseudomonas aeruginosa (in words) ([3]; text statement): remain unaffected
- Antibacterial activity (growth) ([4]; 10 μg/ml): -
- Antibacterial activity (growth) ([4]; 25 μg/ml): +
- Antibacterial activity (growth) ([4]; 50 μg/ml): +
- Antibacterial activity (growth) ([4]; 100 μg/ml): +
- Antibacterial activity (growth) ([4]; 200 μg/ml): +
- Antibacterial activity (growth) ([4]; 400 μg/ml): +
- MIC ([4]; Priestia megaterium, QMB1551, Bacillus megaterium, BHI, 37° C., read-out: MIC (minimum inhibitory concentration)): 25 µg/mL (≈ 53.1 µM)
- antibacterial activity on Bacillus megaterium (in words) ([4]; text statement): exhibits a selective antibacterial activity on S. mutans and Bacillus megaterium
- Antibacterial activity (growth) (Esherichia coli K12; 10 μg/ml): -
- Antibacterial activity (growth) (Esherichia coli K12; 25 μg/ml): -
- Antibacterial activity (growth) (Esherichia coli K12; 50 μg/ml): -
- Antibacterial activity (growth) (Esherichia coli K12; 100 μg/ml): -
- Antibacterial activity (growth) (Esherichia coli K12; 200 μg/ml): -
- Antibacterial activity (growth) (Esherichia coli K12; 400 μg/ml): -
- MIC (Esherichia coli K12; Esherichia coli, BHI, 37° C., read-out: MIC (minimum inhibitory concentration)): > 400 µg/mL
- antibacterial action on Escherichia coli (in words) (Esherichia coli K12; text statement): remain unaffected
- Antibacterial activity (growth) ([5]; 10 μg/ml): -
- Antibacterial activity (growth) ([5]; 25 μg/ml): -
- Antibacterial activity (growth) ([5]; 50 μg/ml): -
- Antibacterial activity (growth) ([5]; 100 μg/ml): -
- Antibacterial activity (growth) ([5]; 200 μg/ml): -
- Antibacterial activity (growth) ([5]; 400 μg/ml): -
- MIC ([5]; IFO12648, Serratia marcescens, BHI, 37° C., read-out: MIC (minimum inhibitory concentration)): > 400 µg/mL
- antibacterial action on Serratia marcescens (in words) ([5]; text statement): remain unaffected
- antibacterial activity to S. mutans (in words) [6]: exhibits a selective antibacterial activity on S. mutans and Bacillus megaterium; also recorded: very strong and selective antibacterial activity to S. mutans
- Antibacterial activity (growth) ([6]; 10 μg/ml): +
- Antibacterial activity (growth) ([6]; 25 μg/ml): +
- Antibacterial activity (growth) ([6]; 50 μg/ml): +
- Antibacterial activity (growth) ([6]; 100 μg/ml): +
- Antibacterial activity (growth) ([6]; 200 μg/ml): +
- Antibacterial activity (growth) ([6]; 400 μg/ml): +
- MIC (minimum inhibitory concentration) ([6]; Streptococcus mutans OMZ 176, BHI, 37° C.): lower than 10 μg/ml
- MIC ([6]; Streptococcus mutans, OMZ176, Streptococcus mutans OMZ 176, BHI, 37° C., read-out: MIC (minimum inhibitory concentration)): 10 µg/mL (≈ 21.2 µM)

SMILES: CC1(C)CC[C@]2(C(=O)O)CC[C@]3(C)C(=CC[C@@H]4[C@@]5(C)CC[C@H](O)[C@@](C)(CO)[C@@H]5CC[C@]43C)[C@@H]2C1 [Hederagenin]
- adherence of bacterial cells to the surface of an extracted tooth (bacterial cells): completely inhibited
- adherence-inhibiting activity (in words) [7]: have both of the adherence-inhibiting activity and the selective antibacterial activity to S. mutans; also recorded: have both activities
- minimal effective concentration [7]: 10 µg/mL
- inhibition at 10 µg/mL [7]: < 25%
- inhibition at 20 µg/mL [7]: > 50%
- inhibition at 30 µg/mL [7]: > 50%
- inhibition at 50 µg/mL [7]: > 50%
- inhibition at 100 µg/mL [7]: > 50%
- antibacterial activity to S. mutans (in words) [6]: almost the same antibacterial activity as oleanolic acid; also recorded: have both of the adherence-inhibiting activity and the selective antibacterial activity to S. mutans; also recorded: have both activities
- antibacterial activity at 10 μg/ml (in words) ([6]; 10 μg/ml): ineffective for exhibiting antibacterial activity

SMILES: C[C@@H]1CC[C@]2(C(=O)O)CC[C@]3(C)C(=CC[C@@H]4[C@@]5(C)CC[C@H](O)C(C)(C)[C@@H]5CC[C@]43C)[C@@H]2[C@]1(C)O [Pomolic acid]
- adherence of bacterial cells to the surface of an extracted tooth (bacterial cells): completely inhibited
- minimal effective concentration [7]: 10 µg/mL
- inhibition at 10 µg/mL [7]: < 25%
- inhibition at 20 µg/mL [7]: > 50%
- inhibition at 30 µg/mL [7]: > 50%
- inhibition at 50 µg/mL [7]: > 50%
- inhibition at 100 µg/mL [7]: > 50%
- adherence-inhibiting activity (in words) [7, 8]: have both of the adherence-inhibiting activity and the selective antibacterial activity to S. mutans; also recorded: have both activities
- antibacterial activity at 10 μg/ml (in words) ([6]; 10 μg/ml): ineffective for exhibiting antibacterial activity
- antibacterial activity to S. mutans (in words) ([6]; text statement): almost the same antibacterial activity as oleanolic acid
- antibacterial activity to S. mutans (in words) [6, 8]: have both of the adherence-inhibiting activity and the selective antibacterial activity to S. mutans; also recorded: have both activities
